Like-named read-outs stand apart in the source and are kept apart here.
Assays:
[1] = tested on: Acinetobacter baumannii AYE; test: Broth microdilution MIC; format: cell-based
C. glabrata 8018 = test: Broth microdilution MIC; format: cell-based; conditions: C. glabrata 8018
C. albicans 3281 = test: Broth microdilution MIC; format: cell-based, Candida albicans; conditions: C. albicans 3281
[2] = tested on: Pseudomonas aeruginosa NCTC 13437; test: Broth microdilution MIC; format: cell-based
M. tuberculosis Bleupan [3] = test: Selectivity index (toxicity/potency); format: cell-based, Mycobacterium tuberculosis; conditions: ratio of average toxicity (HEK293 and HeLa) to potency
Source text: TABLE 3 Selectivity indices of bolaamphiphiles | column: Selectivity of^a: / 12-bis-THA Cl2; Selectivity of^a: / Dequalinium; Selectivity of^a: / Penta-bola; Selectivity of^a: / Octa-bola; Selectivity of^a: / Octa-C8; Selectivity of^a: / Octa-C6

[4] = tested on: EMR Staphylococcus aureus 15 NCTC 13616; test: Broth microdilution MIC; format: cell-based
M. smegmatis mc^2 155 = test: Broth microdilution MIC (Middlebrook 7H9); format: cell-based, Mycobacterium smegmatis
M. tuberculosis Bleupan [5] = format: in vivo, Galleria mellonella
[6] = tested on: Gram-negative bacteria (avg); test: Selectivity index (toxicity/potency); format: cell-based; conditions: ratio of average toxicity (HEK293 and HeLa) to average potency
Source text: (§1) TABLE 3 Selectivity indices of bolaamphiphiles | column: Selectivity of^a: / 12-bis-THA Cl2; Selectivity of^a: / Dequalinium; Selectivity of^a: / Quino-bola; Selectivity of^a: / Penta-bola; Selectivity of^a: / Hepta-bola; Selectivity of^a: / Octa-bola; Selectivity of^a: / Octa-C10; Selectivity of^a: / Octa-C8; Selectivity of^a: / Octa-C6

C. parapsilosis = test: Broth microdilution MIC; format: cell-based
[7] = tested on: Pseudomonas aeruginosa RP73; test: In vitro pharmacodynamic (PD) assay; conditions: P. aeruginosa RP73; combination 2:1 (wt/wt)
Protocol: In vitro PD assays were performed with Pseudomonas aeruginosa RP73 cultured in Roswell Park Memorial Institute 1640 medium (RPMI) supplemented with 5% Mueller-Hinton broth (MHB) ([35]). Bacteria were cultured overnight in 10 mL of RPMI–5% MHB at 37°C and diluted just prior to plate inoculation to an OD600 of 0.002. Stock solutions of colistin or tobramycin were prepared in sterile MilliQ water at a concentration of 200× MIC. Octa-bola was prepared in methanol at 2,000× MIC and diluted in water to 200× MIC. A dilution series was made in the top row of a polypropylene 96-well plate from 200× MIC to 0.2× MIC in a volume of 100 μL, to which 100 μL of the bacterial suspension was added to have a total of 1 × 10^6 log-phase CFU in 200 μL. The first time zero sample was taken <30 s after addition of bacteria to the plate, with further samples taken at appropriate intervals thereafter. […] Fifteen microliters was removed from each well, diluted 1:1,000 in phosphate-buffered saline, and plated onto RPMI–5% MH agar plates. The plates were incubated at 37°C overnight for CFU counting.
CFU data were log10 transformed, and the bacterial net growth rate was determined from the increase or decrease in CFU during the time of exposure to the antibiotics as the coefficient of a linear regression of log10 CFU as a function of time. The intercept of the regression was fixed by forcing the regression lines through the first CFU measurement (0 min) at a given antimicrobial concentration. The pharmacodynamic function according to Regoes et al. ([36]) describes the relationship between bacterial net growth rate (ψ) and the concentration of an antimicrobial (a): ψmax − ([ψmax − ψmin][a/zMIC])^κ/([a/zMIC]^κ − [ψmin/ψmax]). Fitting this function to the net bacterial growth rates in OriginPro 2020 (OriginLab Corporation, Northampton, MA) generates the parameters ψmin and ψmax (minimum and maximum growth rates, respectively), zMIC (the pharmacodynamic MIC), and κ (a measure of the cooperativity). […]

[8] = tested on: VS Enterococcus faecalis NCTC 775; test: Broth microdilution MIC; format: cell-based
[9] = tested on: Escherichia coli ATCC 25922; test: Intrahemocoelic G. mellonella infection model; format: in vivo, Galleria mellonella; conditions: single 10-mg/kg dose 1 h after infection
Protocol: The antimicrobial activities of DQC, CM2, and its analogues Quino-bola, Penta-bola, Hepta-bola, and Octa-bola against Escherichia coli ATCC 25922 were tested in Galleria mellonella larvae. All assays were performed on two separate occasions using a group size of 10 larvae; the larvae were kept in separate petri dishes and in a static incubator at 37°C during the period of the experiment. A suspension of E. coli ATCC 25922 was prepared by transferring two colonies of E. coli ATCC 25922 from a fresh agar plate into PBS and adjusting the absorbance to a McFarland 0.5 standard. The number of CFU per milliliter of this suspension was determined and corresponded to 1 × 10^8 CFU/mL. Larvae were injected beneath the tegument with 10 μL of a 1 × 10^7-CFU/mL bacteria suspension, corresponding to 1 × 10^5 CFU per larva. A 50-μL Hamilton syringe with a G27 needle was used for the injection. […] Ten microliters of stock solution was injected into each larva 1 h after infection (10 mg/kg). Levofloxacin (LVX; 50 μg/mL = 2 mg/kg) and PBS were used as positive and negative controls, respectively. A noninfected PBS injection was included to control for the effects of injection. Survival was monitored over a period of 70 to 72 h. Changes in G. mellonella survival were analyzed by the log rank (Mantel-Cox) method and plotted as Kaplan-Meier survival curves using GraphPad Prism version 7.

[10] = tested on: EMR Staphylococcus aureus 16 NCTC 13277; test: Broth microdilution MIC; format: cell-based
HeLa = test: In vitro toxicity for cell line; format: cell-based, human; conditions: for EC50: Homo sapiens, read-out: Toxicity (EC50)
Source text: as §1, with “2 Toxicity” for “3 Selectivity indices”, “bolaamphiphiles for two cell lines^a” for “bolaamphiphiles”, “Toxicity (EC50 [μg/ml]) of:” for “Selectivity of^a:”

HEK293 = test: In vitro toxicity for cell line; format: cell-based, human; conditions: for EC50: Homo sapiens
Source text: as §1, with “2 Toxicity” for “3 Selectivity indices”, “bolaamphiphiles for two cell lines^a” for “bolaamphiphiles”, “Toxicity (EC50 [μg/ml]) of:” for “Selectivity of^a:”

[11] = Patch-clamp conductance in model membranes; conditions: bilayers composed of DPhPG
Protocol: Giant unilamellar vesicles (GUVs) composed of DiPhytanoly PhosphatidylGlycerol (DPhPG) were prepared in the presence of 1 M sorbitol by the electroformation method in an indium-tin oxide (ITO)-coated glass chamber connected to the Nanion Vesicle Prep Pro setup (Nanion Technologies GmbH, Munich, Germany) using a 3-V peak-to-peak AC voltage at a frequency of 5 Hz for 140 min at 37°C ([30][–][32]). Bilayers were formed by adding the GUV solution to a buffer containing 250 mM KCl, 50 mM MgCl2, and 10 mM HEPES (pH 7.00) onto an aperture in a borosilicate chip (Port-a-Patch; Nanion Technologies) and applying 7,000 to 9,000 Pa negative pressure, resulting in a solvent-free membrane with a resistance in the GΩ range. […] After formation, a small amount of bolalipid stock solution (in water) was added to 50 μL of buffer solution in order to obtain its active concentration. All the experiments were carried out with a positive holding potential of 50 mV. […] For all the experiments, a minimum of 6 concordant repeats were done. Current traces were recorded at a sampling rate of 50 kHz using an EPC-10 amplifier from HEKA Elektronik (Lambrecht, Germany). The system was computer controlled by PatchControl software (Nanion) and GePulse (Michael Pusch, Genoa, Italy [http://users.ge.ibf.cnr.it/pusch/software-mik.htm]). […]

[12] = Acinetobacter baumannii AYE, read-out: MIC
[13] = Nakaseomyces glabratus, read-out: MIC
[14] = Candida albicans, read-out: MIC
[15] = NCTC13616, EMR Staphylococcus aureus 15 NCTC 13616, read-out: MIC
[16] = Mycolicibacterium smegmatis, MC^2155, read-out: MIC
[17] = Lodderomyces parapsilosis, read-out: MIC
[18] = NCTC13277, EMR Staphylococcus aureus 16 NCTC 13277, read-out: MIC
[19] = average ± standard error from 3 independent repeats
[20] = HEK293, average ± standard error from 3 independent repeats, read-out: Toxicity (EC50)
[21] = EMR Staphylococcus aureus 15 NCTC 13616
[22] = EMR Staphylococcus aureus 16 NCTC 13277
[23] = HEK293, average ± standard error from 3 independent repeats

## Nc1c2c([n+](CCCCCCCCCCCC[n+]3c4c(c(N)c5ccccc53)CCCCCC4)c3ccccc13)CCCCCC2 [Octa-bola]
[1]; [12]
  MIC: 8 µg/mL
C. glabrata 8018; [13]
  MIC: 0.5 µg/mL
C. albicans 3281; [14]
  MIC: 0.5 µg/mL
[2]; NCTC13437, read-out: MIC
  MIC: 32 µg/mL
M. tuberculosis Bleupan [3]
  Selectivity index: 17.3
[4]; [15]
  MIC: 0.125 µg/mL
M. smegmatis mc^2 155; [16]
  MIC: 0.55 µg/mL
M. tuberculosis Bleupan [5]; 1 mg/kg
  infected larvae rescued: about half
[6]
  Selectivity index: 0.53
C. parapsilosis; [17]
  MIC: 1 µg/mL
[7]
  bactericidal activity (minimum growth rate, ψmin): strongly bactericidal, albeit only at the highest concentration tested
[8]; NCTC775, read-out: MIC
  MIC: 0.5 µg/mL
[9]
  protection (survival over 72 h): significantly protective
[10]; [18]
  MIC: 0.125 µg/mL
HeLa
  EC50: 4.5 ± 0.7 µg/mL
HEK293; HEK293, read-out: Toxicity (EC50)
  EC50: 3.8 ± 0.3 µg/mL

## Cc1cc(N)c2ccccc2[n+]1CCCCCCCCCC[n+]1c(C)cc(N)c2ccccc21 [Dequalinium, dequalinium chloride, reference compound]
[1]; [12]
  MIC: 32 µg/mL
C. glabrata 8018; [13]
  MIC: 0.5 µg/mL
C. albicans 3281; [14]
  MIC: 0.5 µg/mL
[11]
  concentration required to induce any conductance: 90 µM
[2]; NCTC13437, read-out: MIC
  MIC: > 32 µg/mL
M. tuberculosis Bleupan [3]
  Selectivity index: 6.35
[4]; [15]
  MIC: 8 µg/mL
M. smegmatis mc^2 155; [16]
  MIC: 0.68 µg/mL
M. tuberculosis Bleupan [5]; 0.1 mg/kg
  survival: lower survival
M. tuberculosis Bleupan [5]; higher or lower doses than 0.1 mg/kg
  survival: indifferent
[6]
  Selectivity index: 0.69
C. parapsilosis; [17]
  MIC: 8 µg/mL
[8]; NCTC775, read-out: MIC
  MIC: 32 µg/mL
[9]
  protection (survival over 72 h): protective
[10]; [18]
  MIC: 4 µg/mL
HeLa; [19]
  EC50: 34.7 ± 13.9 µg/mL
HEK293; [20]
  EC50: 9.9 ± 3.3 µg/mL

## Nc1c2c([n+](CCCCCCCCCCCC[n+]3c4c(c(N)c5ccccc53)CCC4)c3ccccc13)CCC2 [Penta-bola]
[1]; Acinetobacter baumannii AYE
  MIC: 32 µg/mL
C. glabrata 8018
  MIC: 0.25 µg/mL
C. albicans 3281
  MIC: 0.25 µg/mL
[2]
  MIC: >32 µg/mL
[4]; [21]
  MIC: 0.5 µg/mL
M. smegmatis mc^2 155
  MIC: 0.10 µg/mL
C. parapsilosis
  MIC: 1 µg/mL
[8]
  MIC: 4 µg/mL
[9]
  protection (survival over 72 h): neither Quino-bola nor Penta-bola offered significant protection
[10]; [22]
  MIC: 0.5 µg/mL
HeLa; [19]
  Toxicity (EC50): 9.5 ± 1.7 µg/mL
HEK293; [23]
  Toxicity (EC50): 7.9 ± 1.2 µg/mL

## Nc1c2c([n+](CCCCCCCCCCCC[n+]3c4c(c(N)c5ccccc53)CCCC4)c3ccccc13)CCCC2 [12-bis-THA Cl2, 12,12′-(Dodecane-1,12-diyl)-bis-(9-amino-1,2,3,4-tetrahydroacridinium) chloride]
[1]; Acinetobacter baumannii AYE
  MIC: 16 µg/mL
C. glabrata 8018
  MIC: 0.25 µg/mL
C. albicans 3281
  MIC: 0.25 µg/mL
[11]
  concentration required to induce any conductance: 90 µM
[2]
  MIC: 32 µg/mL
[4]; [21]
  MIC: 0.25 µg/mL
M. smegmatis mc^2 155
  MIC: 0.28 µg/mL
C. parapsilosis
  MIC: 2 µg/mL
[8]
  MIC: 2 µg/mL
[9]
  protection (survival over 72 h): survival was somewhat better than that obtained in the absence of treatment
[10]; [22]
  MIC: 0.125 µg/mL
HeLa; [19]
  Toxicity (EC50): 7.1 ± 2.0 µg/mL
HEK293; [23]
  Toxicity (EC50): 5.5 ± 2.0 µg/mL

## Cc1c(N)c2ccccc2[n+](CCCCCCCCCCCC[n+]2c(C)c(C)c(N)c3ccccc32)c1C [Quino-bola]
[1]; Acinetobacter baumannii
  MIC: 32 µg/mL
C. glabrata 8018; [13]
  MIC: 0.25 µg/mL
C. albicans 3281; [14]
  MIC: 0.25 µg/mL
[2]
  MIC: > 32 µg/mL
[4]; Staphylococcus aureus, NCTC13616
  MIC: 1 µg/mL
M. smegmatis mc^2 155; [16]
  MIC: 0.49 µg/mL
[6]
  Selectivity index: 0.55
C. parapsilosis; [17]
  MIC: 2 µg/mL
[8]; NCTC775, read-out: MIC
  MIC: 4 µg/mL
[9]
  protection (survival over 72 h): neither Quino-bola nor Penta-bola offered significant protection
[10]; Staphylococcus aureus, NCTC13277
  MIC: 1 µg/mL
HeLa; [19]
  EC50: 13.9 ± 9.5 µg/mL
HEK293; [20]
  EC50: 13.6 ± 0.6 µg/mL

Source: PMC9942557, “Bolaamphiphile Analogues of 12-bis-THA Cl2 Are Potent Antimicrobial Therapeutics with Distinct Mechanisms of Action against Bacterial, Mycobacterial, and Fungal Pathogens” (mSphere, 2022)
